Like-named read-outs stand apart in the source and are kept apart here.
Test system: human cadaver skin
Conditions: normalized against time zero reading, average of 6 cells
Text: Electrical impedance is a proxy indicator of change in skin permeability.
The impedance reading at each cell at different time points was normalized against the time zero-minute reading of that cell. For each test formulation, the impedance reading of each time point is the average normalized value of the 6 repeat cells at that time point. Note: SDS=sodium dodecyl sulphate.

## CCCCCCCCCCCCOS(=O)(=O)[O-].[Na+] [SDS, sodium dodecyl sulphate]
Time 0 minutes
  normalized electrical impedance: 1.00
Time 5 minutes
  normalized electrical impedance: 0.94
Time 10 minutes
  normalized electrical impedance: 0.90
Time 15 minutes
  normalized electrical impedance: 0.86
Time 30 minutes
  normalized electrical impedance: 0.76

Reference: US20240197593A1, “CLEANSING COMPOSITION FOR FEMALE INTIMATE HYGIENE” (Conopco, Inc., d/b/a UNILEVER, priority 2021, published 2024)
